Experimental data: paper PMC5007552, “The hVps34‐SGK3 pathway alleviates sustained PI3K/Akt inhibition by stimulating mTORC1 and tumour growth” (The EMBO Journal, 2016)
Values joined by “and” are separate entries in the source; they are usually repeats but may differ in a detail not shown here. Equal values may be shown once.

Test system: ZR-75-1 cells
Assay: NanoString human kinome mRNA quantification
Format: cell-based
Text: Human mRNAs were hybridised to NanoString human kinome and control code sets, then subjected to quantification using NanoString software. […] To permit data compaction, and simple kinome‐wide comparisons, the fold changes are log2 transformed. […] Cell pellets were resuspended at a concentration of ~6,500 cells/μl in RLT buffer (Qiagen). […] For total copy numbers, triplicate normalised count values were averaged, and to calculate fold induction, means were divided by triplicate mean values from matched DMSO controls. P‐values were calculated using unpaired t‐test (GraphPad Prism software) by employing treated and control count data for each kinase mRNA.

**Q.** For `NC1(c2ccc(-c3nc4ccn5c(=O)[nH]nc5c4cc3-c3ccccc3)cc2)CCC1` [MK-2206], which “BRD4 Normalised counts” value (BRD4 mRNA, single replicates) is on record?
**A.** 2584.75 and 2591.35 and 2590.29

**Q.** What about the “BRDT Average normalised counts” value (BRDT mRNA, average of 3 replicates) of the same compound?
**A.** 1

**Q.** What about the “BRDT Normalised counts” value (BRDT mRNA, single replicates) of the same compound?
**A.** 1

**Q.** And the “BRSK1 Average normalised counts” value (BRSK1 mRNA, average of 3 replicates)?
**A.** 145.583

**Q.** And the “BRSK1 Normalised counts” value (BRSK1 mRNA, single replicates)?
**A.** 127.82 and 151.05 and 157.88

**Q.** What about the “BRSK2 Average normalised counts” value (BRSK2 mRNA, average of 3 replicates) of the same compound?
**A.** 4.607

**Q.** And the “BRSK2 Normalised counts” value (BRSK2 mRNA, single replicates)?
**A.** 2.39 and 5.97 and 5.46

**Q.** And the “BTK Average normalised counts” value (BTK mRNA, average of 3 replicates)?
**A.** 1

**Q.** What about the “BTK Normalised counts” value (BTK mRNA, single replicates) of the same compound?
**A.** 1

**Q.** What about the “BUB1B Average normalised counts” value (BUB1B mRNA, average of 3 replicates) of the same compound?
**A.** 1729.87

**Q.** What about the “BUB1B Normalised counts” value (BUB1B mRNA, single replicates) of the same compound?
**A.** 1717.6 and 1711.31 and 1760.7

**Q.** And the “BUB1 Average normalised counts” value (BUB1 mRNA, average of 3 replicates)?
**A.** 648.95

**Q.** What about the “BUB1 Normalised counts” value (BUB1 mRNA, single replicates) of the same compound?
**A.** 644.12 and 665.35 and 637.38

**Q.** And the “C9orf96 Average normalised counts” value (C9orf96 mRNA, average of 3 replicates)?
**A.** 2.773

**Q.** What about the “C9orf96 Normalised counts” value (C9orf96 mRNA, single replicates) of the same compound?
**A.** 1 and 4.24 and 3.08

**Q.** What about the “C21orf7 Average normalised counts” value (C21orf7 mRNA, average of 3 replicates) of the same compound?
**A.** 1

**Q.** What about the “C21orf7 Normalised counts” value (C21orf7 mRNA, single replicates) of the same compound?
**A.** 1

**Q.** And the “CAMK1D average normalised counts” value (CAMK1D mRNA)?
**A.** 339.763

**Q.** What about the “CAMK1D normalised counts (replicates)” value (CAMK1D mRNA) of the same compound?
**A.** 364.15 and 317.85 and 337.29

**Q.** What about the “CAMK1G average normalised counts” value (CAMK1G mRNA) of the same compound?
**A.** 1

**Q.** What about the “CAMK1G normalised counts (replicates)” value (CAMK1G mRNA) of the same compound?
**A.** 1

**Q.** And the “CAMK1 average normalised counts” value (CAMK1 mRNA)?
**A.** 4.053

**Q.** What about the “CAMK1 normalised counts (replicates)” value (CAMK1 mRNA) of the same compound?
**A.** 4.2 and 2.5 and 5.46

**Q.** And the “CAMK2A average normalised counts” value (CAMK2A mRNA)?
**A.** 1

**Q.** What about the “CAMK2A normalised counts (replicates)” value (CAMK2A mRNA) of the same compound?
**A.** 1

**Q.** And the “CAMK2B average normalised counts” value (CAMK2B mRNA)?
**A.** 228.397

**Q.** What about the “CAMK2B normalised counts (replicates)” value (CAMK2B mRNA) of the same compound?
**A.** 211.86

**Q.** What about the “CAMK2D average normalised counts” value (CAMK2D mRNA) of the same compound?
**A.** 829.067

**Q.** What about the “CAMK2D normalised counts (replicates)” value (CAMK2D mRNA) of the same compound?
**A.** 815.91 and 824.33 and 846.96

**Q.** And the “CAMK2G average normalised counts” value (CAMK2G mRNA)?
**A.** 2774.38

**Q.** What about the “CAMK2G normalised counts (replicates)” value (CAMK2G mRNA) of the same compound?
**A.** 2695.65 and 2845.89 and 2781.61

**Q.** And the “CAMK4 average normalised counts” value (CAMK4 mRNA)?
**A.** 3.433

**Q.** And the “CAMK4 normalised counts (replicates)” value (CAMK4 mRNA)?
**A.** 4.2 and 5.1 and 1

**Q.** What about the “CAMKK1 average normalised counts” value (CAMKK1 mRNA) of the same compound?
**A.** 313.75

**Q.** And the “CAMKK1 normalised counts (replicates)” value (CAMKK1 mRNA)?
**A.** 326.89 and 314.38 and 299.98

**Q.** What about the “CAMKK2 average normalised counts” value (CAMKK2 mRNA) of the same compound?
**A.** 584.02

**Q.** What about the “CAMKK2 normalised counts (replicates)” value (CAMKK2 mRNA) of the same compound?
**A.** 568.67 and 607.14 and 576.25

**Q.** And the “CAMKV average normalised counts” value (CAMKV mRNA)?
**A.** 1.5

**Q.** And the “CAMKV normalised counts (replicates)” value (CAMKV mRNA)?
**A.** 1 (2×) and 2.5

**Q.** What about the “CASK average normalised counts” value (CASK mRNA) of the same compound?
**A.** 727.217

**Q.** And the “CASK normalised counts (replicates)” value (CASK mRNA)?
**A.** 714.11 and 680.12 and 787.42

**Q.** And the “CCL2 average normalised counts” value (CCL2 mRNA)?
**A.** 6.427

**Q.** And the “CCL2 normalised counts (replicates)” value (CCL2 mRNA)?
**A.** 9.66 and 3.37 and 6.25

**Q.** What about the “CDC7 average normalised counts” value (CDC7 mRNA) of the same compound?
**A.** 336.743

**Q.** What about the “CDC7 normalised counts (replicates)” value (CDC7 mRNA) of the same compound?
**A.** 335.98 and 336.96 and 337.29

**Q.** And the “CDC42BPA average normalised counts” value (CDC42BPA mRNA)?
**A.** 675.63

**Q.** And the “CDC42BPA normalised counts (replicates)” value (CDC42BPA mRNA)?
**A.** 678.66 and 677.51 and 670.72

**Q.** And the “CDC42BPB average normalised counts” value (CDC42BPB mRNA)?
**A.** 1143.02

**Q.** What about the “CDC42BPB normalised counts (replicates)” value (CDC42BPB mRNA) of the same compound?
**A.** 1097.69 and 1178.77 and 1152.6

**Q.** What about the “CDC42BPG average normalised counts” value (CDC42BPG mRNA) of the same compound?
**A.** 104.73

**Q.** What about the “CDC42BPG normalised counts (replicates)” value (CDC42BPG mRNA) of the same compound?
**A.** 110.55 and 108.48 and 95.16

**Q.** What about the “CDK1 average normalised counts” value (CDK1 mRNA) of the same compound?
**A.** 3517.89

**Q.** And the “CDK1 normalised counts (replicates)” value (CDK1 mRNA)?
**A.** 3504.63 and 3450.53 and 3598.5

**Q.** What about the “CDK2 average normalised counts” value (CDK2 mRNA) of the same compound?
**A.** 369.187

**Q.** What about the “CDK2 normalised counts (replicates)” value (CDK2 mRNA) of the same compound?
**A.** 366.88 and 370.84 and 369.84

**Q.** What about the “CDK3 average normalised counts” value (CDK3 mRNA) of the same compound?
**A.** 56.79

**Q.** What about the “CDK3 normalised counts (replicates)” value (CDK3 mRNA) of the same compound?
**A.** 49.65 and 58.1 and 62.62

**Q.** What about the “CDK4 average normalised counts” value (CDK4 mRNA) of the same compound?
**A.** 2610.07

**Q.** What about the “CDK4 normalised counts (replicates)” value (CDK4 mRNA) of the same compound?
**A.** 2590.21 and 2633.05 and 2606.96

**Q.** What about the “CDK5 average normalised counts” value (CDK5 mRNA) of the same compound?
**A.** 1339.04

**Q.** What about the “CDK5 normalised counts (replicates)” value (CDK5 mRNA) of the same compound?
**A.** 1332.2 and 1264.78 and 1420.13

**Q.** And the “CDK6 average normalised counts” value (CDK6 mRNA)?
**A.** 35.6167

**Q.** What about the “CDK6 normalised counts (replicates)” value (CDK6 mRNA) of the same compound?
**A.** 34.2 and 34.64 and 38.01

**Q.** What about the “CDK7 average normalised counts” value (CDK7 mRNA) of the same compound?
**A.** 605.207

**Q.** What about the “CDK7 normalised counts (replicates)” value (CDK7 mRNA) of the same compound?
**A.** 585.94 and 619.3 and 610.38

**Q.** What about the “CDK8 average normalised counts” value (CDK8 mRNA) of the same compound?
**A.** 908.99

**Q.** What about the “CDK8 normalised counts (replicates)” value (CDK8 mRNA) of the same compound?
**A.** 898.63 and 942.48 and 885.86

**Q.** What about the “CDK9 average normalised counts” value (CDK9 mRNA) of the same compound?
**A.** 879.65

**Q.** What about the “CDK9 normalised counts (replicates)” value (CDK9 mRNA) of the same compound?
**A.** 853.18 and 899.91 and 885.86

**Q.** What about the “CDK10 average normalised counts” value (CDK10 mRNA) of the same compound?
**A.** 437.29

**Q.** What about the “CDK10 normalised counts (replicates)” value (CDK10 mRNA) of the same compound?
**A.** 440.51 and 431.66 and 439.7

**Q.** What about the “CDK11A average normalised counts” value (CDK11A mRNA) of the same compound?
**A.** 420.55

**Q.** And the “CDK11A normalised counts (replicates)” value (CDK11A mRNA)?
**A.** 435.96 and 389.96 and 435.73

**Q.** What about the “CDK12 average normalised counts” value (CDK12 mRNA) of the same compound?
**A.** 928.887

**Q.** And the “CDK12 normalised counts (replicates)” value (CDK12 mRNA)?
**A.** 909.53 and 946.82 and 930.31

**Q.** And the “CDK13 average normalised counts” value (CDK13 mRNA)?
**A.** 1530.42

**Q.** And the “CDK13 normalised counts (replicates)” value (CDK13 mRNA)?
**A.** 1564.9 and 1505.42 and 1520.95

**Q.** And the “CDK14 average normalised counts” value (CDK14 mRNA)?
**A.** 158.347

**Q.** What about the “CDK14 normalised counts (replicates)” value (CDK14 mRNA) of the same compound?
**A.** 151.46 and 173.64 and 149.94

**Q.** And the “CDK15 average normalised counts” value (CDK15 mRNA)?
**A.** 1

**Q.** And the “CDK15 normalised counts (replicates)” value (CDK15 mRNA)?
**A.** 1

**Q.** What about the “CDK16 average normalised counts” value (CDK16 mRNA) of the same compound?
**A.** 3907.09

**Q.** What about the “CDK16 normalised counts (replicates)” value (CDK16 mRNA) of the same compound?
**A.** 3890.94 and 3866.66 and 3963.68

**Q.** What about the “CDK17 average normalised counts” value (CDK17 mRNA) of the same compound?
**A.** 1410.09

**Q.** What about the “CDK17 normalised counts (replicates)” value (CDK17 mRNA) of the same compound?
**A.** 1395.83 and 1406.38 and 1428.07

**Q.** What about the “CDK18 average normalised counts” value (CDK18 mRNA) of the same compound?
**A.** 99.86
